One experiment concerns the target T1, ECE (Cavia porcellus, UniProt P97739).
T1 construct: tissue Keystone Biologicals, Cleveland, Ohio; host or cells: frozen guinea pig lungs; lubrol PX-treated lung membranes
T1 sequence (P97739 1-754): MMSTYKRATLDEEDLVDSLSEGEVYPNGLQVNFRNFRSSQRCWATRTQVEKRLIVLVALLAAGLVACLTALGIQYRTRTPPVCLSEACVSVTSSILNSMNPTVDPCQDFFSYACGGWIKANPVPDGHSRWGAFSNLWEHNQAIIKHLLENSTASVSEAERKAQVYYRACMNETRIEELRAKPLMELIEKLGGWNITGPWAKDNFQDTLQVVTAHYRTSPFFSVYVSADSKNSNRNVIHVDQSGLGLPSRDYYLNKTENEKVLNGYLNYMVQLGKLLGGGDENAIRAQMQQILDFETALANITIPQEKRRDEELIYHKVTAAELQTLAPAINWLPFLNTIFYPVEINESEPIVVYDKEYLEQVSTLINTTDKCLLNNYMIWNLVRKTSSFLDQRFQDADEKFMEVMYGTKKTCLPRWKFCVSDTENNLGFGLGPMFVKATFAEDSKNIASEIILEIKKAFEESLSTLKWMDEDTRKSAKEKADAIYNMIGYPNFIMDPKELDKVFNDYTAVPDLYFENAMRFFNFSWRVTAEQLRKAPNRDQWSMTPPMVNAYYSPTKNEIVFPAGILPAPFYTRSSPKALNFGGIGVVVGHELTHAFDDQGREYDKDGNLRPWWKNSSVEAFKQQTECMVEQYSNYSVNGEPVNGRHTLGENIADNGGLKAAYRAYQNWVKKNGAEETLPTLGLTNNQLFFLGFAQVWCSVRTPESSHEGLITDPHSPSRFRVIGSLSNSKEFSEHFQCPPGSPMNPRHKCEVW
Put plainly: In vitro ECE assay (inhibition of [125I]BET-1 to [125I]ET-1 conversion, lubrol-treated guinea pig lung membrane). Type of experiment: biochemical. As to conditions: L-GPLGM, 2 h preincubation at 4° C., 500 pM [125I]BET-1, table of examples, read-out: ECE IC50. An excerpt:
The ECE assay is based on the quantitative determination of [^125 l]ET-1 released from [^125 l]BET-1 labeled on Tyrosine-13 by binding to the membrane-bound ET receptor. […] GPLGM was also found to contain a high density of ET receptors. Thus, this preparation was utilized as a source of both ECE and a saturating concentration of ET receptors for the quantitative determination of [251l]ET-1 from the conversion of [125l ]BET-1. Under selected experimental conditions of the ECE assay, specific [125l]ET-1 bound was directly related to ECE activity. Assays were carried out in the presence of varying concentrations of test compounds to evaluate their efficacy in inhibiting ECE activity.
Frozen guinea pig lungs (Keystone Biologicals,Cleveland, Ohio) are weighed and homogenized in 10 times gram tissue weight of solution A (50 mM Tris-HCl, pH 7.4, 0.25M sucrose, and 2 mM EDTA) using a Polytron tissue homogenizer (probe PTA-20S). Homogenization is repeated four times at speed setting seven each for 10 s and with 5-8 min intervals on ice in between homogenization. Homogenates are spun for 30 min at 2000 g (4100 rpm in an SS34 rotor or 3800 rpm in an SA-600 rotor). Supernatants containing membranes are carefully decanted and saved. Pellets are rehomogenized in solution A as described, and homogenates are spun at 2000 g for 30 min. Supernatants are removed, mixed with the supernatants from the first spin, and spun at 37000 rpm in a 45 Ti rotor (107022 g) for 60 min. Pellets containing membranes are suspended in solution B (10 mM Tris-HCl, pH 7.4, and 0.125M sucrose) using a Dounce homogenizer. Samples are divided into 1 ml fractions, rapidly frozen in a dry ice methanol bath, and stored at -80° C. All steps are carried out at 4° C.
GPLGM fractions prepared as described above are thawed and resuspended at a concentration of 1 mg membrane protein/mL in a solution containing 0.06% lubrol PX, 50 mM Tris-HCl (pH 7.4), and 100 mM NaCl. Stir the mixture for 1 h and then spin for 1 h at 37000 rpm in a 45 Ti rotor (107022 g). Discard the supernatants and resuspend the pellets in a solution containing 50 mM Tris-HCl (pH 7.4), and 100 mM NaCl using a Dounce homogenizer, and adjust the final volume to half the original volume. Spin the homogenates for 1 h at 37000 rpm in a 45 Ti rotor (107022 g). Suspend the membrane pellets in solution B and treat as described above. All steps are performed at 4° C.
ECE Assay: Samples of L-GPLGM containing 20 μg protein are incubated in a solution containing 100 mM Tris-HCl (pH 7), 100 mM NaCl, and 5 mg/ml BSA (Fraction V, 98-99% albumin) (Sigma Chemical Co.) at a final reaction volume of 100 μL. The ECE assay is initiated by the addition of [^125 l]BET-1 to obtain a final concentration of 500 pM. Reactions are carried out for 30 min at 37° C. Reactions are terminated by addition of 4 mL of solution C (10 mM Tris-HCl, pH 7.4, and 150 mM NaCl) at 4° C. followed by rapid filtration on Whatman GF/B glass microfiber filters. Filters are presoaked for 1 h at 4° C. in a solution containing 50 mM Tris-HCl (pH 7.4), 10 mg/mL BSA, and 0.1% sodium azide. Wash test tubes and filters four times with 4 mL of solution C at 4° C., and count radioactivity retained on the filters in a γ counter. Non-specific binding is determined in the presence of 1 μM of unlabeled ET-1 (Peninsula Laboratories, Inc., Belmont, Calif.) in the reaction mixture. All reactions are performed in duplicate.
To test the effect of test compounds on ECE activity, ECE assays are carried out in the presence of varying concentrations of the compounds. Assays are initiated following a 2 h incubation of L-GPLGM with the compound at 4° C. ECE activity in the presence of compounds is expressed as a percentage of control ECE activity of the membrane preparation, which is determined simultaneously.
By IC50 is commonly meant the concentration needed to halve the response being measured. For the compound `CC(C)CC(CP(=O)(O)C(CC(C)C)NC(=O)[C@H](CCCCNC(=O)OCc1ccccc1)NS(C)(=O)=O)C(=O)N[C@@H](Cc1c[nH]c2ccccc12)C(=O)O` (single isomer, unassigned) [Example 10A], the IC50 came out at 40 nM.

With `CC(C)CC(CP(=O)(O)C(Cc1ccc2ccccc2c1)NC(=O)[C@H](CCCCNC(=O)OCc1ccccc1)NS(C)(=O)=O)C(=O)N[C@@H](Cc1c[nH]c2ccccc12)C(=O)O` (single isomer, unassigned) [Example 9C], the IC50 was 4500 nM.

`CC(C)CC(CP(=O)(O)C(CC1CCCC1)NC(=O)[C@H](CCCCNC(=O)OCc1ccccc1)NS(C)(=O)=O)C(=O)N[C@@H](Cc1c[nH]c2ccccc12)C(=O)O` (stereo partly shown) [Example 10E]: the 50% inhibitory concentration (IC50) was 55 nM.

Consider `CS(=O)(=O)N[C@@H](CCCCNC(=O)OCc1ccccc1)C(=O)N[C@@H](Cc1ccccc1)P(=O)(O)CC1(C(=O)N[C@@H](Cc2ccc(O)cc2)C(=O)O)CCCC1` [Example 4], for which the IC50 worked out at 119 nM.

`O=C(N[C@@H](Cc1ccccc1)P(=O)(O)CC1(C(=O)N[C@@H](Cc2ccc(O)cc2)C(=O)O)CCCC1)OCc1ccccc1` [Example 2]: the IC50 came to 130 nM. As to `COc1ccc(CC(NC(=O)[C@H](CCCCNC(=O)OCc2ccccc2)NS(C)(=O)=O)P(=O)(O)CC2(C(=O)N[C@@H](Cc3c[nH]c4ccccc34)C(=O)O)CCCC2)cc1` (stereo partly shown) [Example 3A], the IC50 turned out to be 50 nM. The same measure, in the same setting: in the case of `CC(C)CC(CP(=O)(O)C(CCCCO)NC(=O)[C@H](CC(C)C)NS(C)(=O)=O)C(=O)N[C@@H](Cc1c[nH]c2ccccc12)C(=O)O` (stereo partly shown) [Example 10D] it was 150 nM.

Turning to `O=C(NC(Cc1ccc(O)cc1)P(=O)(O)CC1(C(=O)N[C@@H](Cc2c[nH]c3ccccc23)C(=O)O)CCCC1)OCc1ccccc1` (stereo partly shown) [Example 8], the IC50 came to 85 nM. On the same count and under the same terms, in the case of `COc1ccc(CC(NC(=O)[C@H](CCCCN)NS(C)(=O)=O)P(=O)(O)CC2(C(=O)N[C@@H](Cc3c[nH]c4ccccc34)C(=O)O)CCCC2)cc1` (stereo partly shown) [Example 5A] it was 40 nM; in that of `O=C(NC(Cc1ccc(C(=O)N2CCOCC2)cc1)P(=O)(O)CC1(C(=O)N[C@@H](Cc2c[nH]c3ccccc23)C(=O)O)CCCC1)OCc1ccccc1` (stereo partly shown) [Example 7], 50 nM. For the compound `CC(C)CC(CP(=O)(O)C(Cc1ccc2ccccc2c1)NC(=O)[C@H](CCCCNC(=O)OCc1ccccc1)NS(C)(=O)=O)C(=O)N[C@@H](Cc1c[nH]c2ccccc12)C(=O)O` (single isomer, unassigned) [Example 9B], the IC50 is 4500 nM. Same read-out and setting: in the case of `CS(=O)(=O)N[C@@H](CCCCN)C(=O)NC(Cc1ccc(O)cc1)P(=O)(O)CC1(C(=O)N[C@@H](Cc2c[nH]c3ccccc23)C(=O)O)CCCC1` (stereo partly shown) [Example 5B] it was 100 nM. Same read-out and setting: the result for `CC(C)CC(CP(=O)(O)C(Cc1ccc2ccccc2c1)NC(=O)[C@H](CCCCNC(=O)OCc1ccccc1)NS(C)(=O)=O)C(=O)N[C@@H](Cc1c[nH]c2ccccc12)C(=O)O` (single isomer, unassigned) [Example 9A] reads 65 nM; that for `CC(C)CC(NC(=O)[C@H](CCCCNC(=O)OCc1ccccc1)NS(C)(=O)=O)P(=O)(O)CC1(C(=O)N[C@@H](Cc2c[nH]c3ccccc23)C(=O)O)CCCC1` (stereo partly shown) [Example 3D], 55 nM.

The experiment is the same for the next values; noted with them: L-GPLGM, table of additional compounds, read-out: IC50 (in vitro ECE inhibition activity).
Consider `CC(C)CC(CP(=O)(O)C(Cc1ccccc1)NC(=O)C(CCCCNC(=O)OCc1ccccc1)NS(C)(=O)=O)C(=O)N[C@@H](Cc1c[nH]c2ccccc12)C(=O)O` (stereo partly shown), for which the IC50 was determined as 500 nM. The same measure, in the same setting: in the case of `CC(C)CC(CP(=O)(O)C(CC(C)C)NC(=O)C(CCCCNC(=O)OCc1ccccc1)NS(C)(=O)=O)C(=O)N[C@@H](Cc1c[nH]c2ccccc12)C(=O)O` (stereo partly shown) it was 1400 nM. Turning to `CC(C)CC(CP(=O)(O)C(Cc1ccc2ccccc2c1)NC(=O)OCc1ccccc1)C(=O)N[C@@H](Cc1c[nH]c2ccccc12)C(=O)O` (stereo partly shown) [Cbz, 2-naphthylmethyl, H, iso-butyl], the IC50 amounted to 300 nM.

Take `CC(C)CC(NC(=O)C(CCCCNC(=O)OCc1ccccc1)NS(C)(=O)=O)P(=O)(O)CC1(C(=O)N[C@@H](Cc2c[nH]c3ccccc23)C(=O)O)CCCC1` (stereo partly shown): the IC50 was 260 nM. The same measure, in the same setting: in the case of `O=C(NC(Cc1ccccc1)P(=O)(O)CC1(C(=O)N[C@@H](Cc2c[nH]c3ccccc23)C(=O)O)CCCC1)OCc1ccccc1` (stereo partly shown) [Cbz, C6 H5CH2, R3 + R4 = (CH2)4] it was 190 nM. Regarding `CCC(C)C(N)C(=O)NC(Cc1ccccc1)P(=O)(O)CC(C(=O)N[C@@H](Cc1c[nH]c2ccccc12)C(=O)O)C(C)C` (stereo partly shown), the half-inhibitory concentration (IC50) was determined as 1600 nM.

For `CC(C)CC(CP(=O)(O)C(CCCCN)NC(=O)OCc1ccccc1)C(=O)N[C@@H](Cc1c[nH]c2ccccc12)C(=O)O` (stereo partly shown) [Cbz, NH 2(CH2)4, H, iso-butyl], the IC50 was found to be 400 nM.

On to `CC(C)CC(CP(=O)(O)C(CC1CCCC1)NC(=O)OCc1ccccc1)C(=O)N[C@@H](Cc1c[nH]c2ccccc12)C(=O)O` (stereo partly shown) [Cbz, cyclopentylmethyl, H, iso-butyl], for which the concentration for half-maximal inhibition (IC50) worked out at 1000 nM. The same measure, in the same setting: the result for `CC(C)C(CP(=O)(O)C(Cc1ccccc1)NC(=O)C(CCCCNC(=O)OCc1ccccc1)NS(C)(=O)=O)C(=O)N[C@@H](Cc1c[nH]c2ccccc12)C(=O)O` (single isomer, unassigned) reads 390 nM; that for `CC(C)CC(CP(=O)(O)C(CCCCO)NC(=O)OCc1ccccc1)C(=O)N[C@@H](Cc1c[nH]c2ccccc12)C(=O)O` (stereo partly shown) [Cbz, HO(CH2)4, H, iso-butyl], 200 nM. Still for that read-out and setting: in the case of `CC(C)C(CP(=O)(O)C(Cc1ccccc1)NC(=O)C(CCCCN)NS(C)(=O)=O)C(=O)N[C@@H](Cc1c[nH]c2ccccc12)C(=O)O` (stereo partly shown) it was 500 nM; in that of `CC(C)C(CP(=O)(O)C(Cc1ccc2ccccc2c1)NC(=O)C(CCCCNC(=O)OCc1ccccc1)NS(C)(=O)=O)C(=O)N[C@@H](Cc1c[nH]c2ccccc12)C(=O)O` (stereo partly shown), 800 nM. Same read-out and setting: in the case of `O=C(NC(Cc1ccc2ccccc2c1)P(=O)(O)CC1(C(=O)N[C@@H](Cc2c[nH]c3ccccc23)C(=O)O)CCCC1)OCc1ccccc1` (stereo partly shown) [Cbz, 2-naphthylmethyl, R3 + R4 = (CH2)4] it was 500 nM; in that of `CC(C)CC(CP(=O)(O)C(Cc1ccc2ccccc2c1)NC(=O)C(CCCCN)NS(C)(=O)=O)C(=O)N[C@@H](Cc1c[nH]c2ccccc12)C(=O)O` (single isomer, unassigned), 68 nM.
